Results: US20240262833A1, “FUSED HETEROCYCLIC DERIVATIVES AS NEGATIVE ALLOSTERIC MODULATORS OF MGLU7 RECEPTOR” (Addex Pharma S.A., priority 2021, published 2024)

Target: T1, human metabotropic glutamate 7 receptor (hmGlu7) (Homo sapiens, UniProt Q14831)
T1 construct: expressed in transfected cells
Assay: mGlu7 assay on HEK-expressing human mGlu7: fluorescent cell based Ca2+ mobilization assay (FLIPR), inhibition of EC80 L-AP4 response
Conditions: HEK-293 cells expressing hmGlu7; EC80 L-AP4 stimulation; mean of at least three independent experiments in duplicate; read-out: Ca2+ Flux (mean IC50)
Source text: mGlu7 Assay on HEK-Expressing Human mGlu7
The cDNA encoding the human metabotropic glutamate 7 receptor (hmGlu7), (accession number NM_181874.2, NCBI Nucleotide database browser), was subcloned into an expression vector containing also the hygromycin resistance gene. In parallel, the cDNA encoding a G protein allowing redirection of the activation signal to intracellular calcium flux was subcloned into a different expression vector containing also the Puromycin resistance gene. Transfection of both these vectors into HEK293 cells with PolyFect reagent (Qiagen) according to supplier's protocol, and hygromycin and puromycin treatment allowed selection of antibiotic resistant cells which had integrated stably one or more copies of the plasmids. Positive cellular clones expressing hmGlu7 were identified in a functional assay measuring changes in calcium fluxes in response to glutamate and L-AP4 or known mGlu7 orthosteric antagonists.
HEK-293 cells expressing hmGlu7 were maintained in media containing DMEM, Fetal Bovine Serum (10%), Glutamax™ (2 mM), penicillin (100 units/mL), streptomycin (100 μg/mL), geneticin (100 μg/mL) and hygromycin-B (40 μg/mL) and puromycin (1 μg/mL) at 37° C. with 5% CO2 in a humidified atmosphere.
Fluorescent Cell Based-Ca^2+ Mobilization Assay Human mGlu7 HEK-293 cells were plated out 24 hours prior to a fluorescent cell-based calcium mobilization assay using FLIPR^384 assay (Molecular Device, Sunnyvale, CA, USA) in black-walled, clear-bottomed, poly-L-ornithine-coated 384-well plates at a density of 25,000 cells/well in a glutamine/glutamate free DMEM medium containing fetal bovine serum (10%), penicillin (100 units/mL), streptomycin (100 μg/mL) and doxycyline (1 μg/ml) at 37° C. with 5% CO2 in a humidified atmosphere.
On the day of the assay, the medium was aspirated and the cells were loaded with a 3 μM solution of Fluo4-AM (LuBioScience, Lucerne, Switzerland) in 0.03% pluronic acid. After 1 hour at 37° C./5% CO2, the non incorporated dye was removed by washing cell plate with the assay buffer. All assays were performed in a pH 7.4 buffered-solution containing 20 mM HEPES, 143 mM NaCl, 6 mM KCl, 1 mM MgSO4, 1 mM CaCl2, 0.125 mM sulfinpyrazone and 0.1% glucose.
After 10 s of basal fluorescence recording, various concentrations of the compounds of the invention were added to the cells. Changes in fluorescence levels were first monitored for 180 s in order to detect any agonist activity of the compounds. Then the cells were stimulated by an EC80 L-AP4 concentration for an additional 110 s in order to measure inhibiting activities of the compounds of the invention. EC80 L-AP4 concentration is the concentration giving 80% of the maximal glutamate response.
The concentration-response curves of L-AP4 or representative compounds of the present invention were generated using the Prism GraphPad software (Graph Pad Inc, San Diego, USA). The curves were fitted to a four-parameter logistic equation: […]
allowing determination of IC50 values.
The Table 3 below represents the mean IC50 obtained from at least three independent experiments of selected molecules performed in duplicate.

T1 sequence (Q14831 35-922 isoform Q14831-2): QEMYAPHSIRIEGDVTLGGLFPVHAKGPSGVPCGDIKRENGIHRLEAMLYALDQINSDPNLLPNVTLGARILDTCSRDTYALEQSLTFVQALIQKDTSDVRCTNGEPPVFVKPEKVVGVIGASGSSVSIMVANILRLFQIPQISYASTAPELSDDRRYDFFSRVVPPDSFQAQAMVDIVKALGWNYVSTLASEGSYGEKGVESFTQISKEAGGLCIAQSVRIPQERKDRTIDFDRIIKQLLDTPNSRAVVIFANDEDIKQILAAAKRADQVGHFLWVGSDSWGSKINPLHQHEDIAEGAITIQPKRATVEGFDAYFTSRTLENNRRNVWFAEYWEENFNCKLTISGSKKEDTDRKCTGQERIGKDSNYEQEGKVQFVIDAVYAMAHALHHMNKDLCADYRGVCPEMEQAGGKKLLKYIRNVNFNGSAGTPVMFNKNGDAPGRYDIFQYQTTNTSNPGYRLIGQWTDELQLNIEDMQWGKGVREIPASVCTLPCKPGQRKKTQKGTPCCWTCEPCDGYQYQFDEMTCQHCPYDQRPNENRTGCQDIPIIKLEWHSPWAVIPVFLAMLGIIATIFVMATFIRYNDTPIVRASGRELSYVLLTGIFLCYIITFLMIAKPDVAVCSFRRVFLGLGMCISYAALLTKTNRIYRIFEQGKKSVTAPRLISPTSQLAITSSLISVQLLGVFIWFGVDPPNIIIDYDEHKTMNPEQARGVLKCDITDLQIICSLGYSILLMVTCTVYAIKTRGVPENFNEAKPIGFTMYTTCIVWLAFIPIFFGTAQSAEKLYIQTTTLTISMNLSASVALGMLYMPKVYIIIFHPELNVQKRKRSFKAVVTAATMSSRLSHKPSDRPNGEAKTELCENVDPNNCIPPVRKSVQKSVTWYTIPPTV

Row | IC50 | Structure (SMILES)
1 | 100 to 1000 nM | COCc1ccc(-n2ncc3c(C)n(-c4cccc(N5CCOCC5)c4)c(C)c3c2=O)cc1 [1-69]
2 | 100 to 1000 nM | COc1ccc(-n2ncc3c(C)n(-c4cccc(N5CCOCC5)c4)c(C)c3c2=O)cc1 [1-67]
3 | < 100 nM | Cc1c2cnn(-c3ccc(C(C)(C)O)cc3)c(=O)c2c(C)n1-c1cccc(N2CCC2)c1 [1-170, 6-(3-(Azetidin-1-yl)phenyl)-2-(4-(2-hydroxypropan-2-yl)phenyl)-5,7-dimethyl-2,6-dihydro-1H-pyrrolo[3,4-d]pyridazin-1-one]
4 | 100 to 1000 nM | COc1cccc(-n2c(C)c3cnn(-c4ccccn4)c(=O)c3c2C)c1F [1-233]
5 | 100 to 1000 nM | Cc1c2cnn(-c3ccccn3)c(=O)c2c(C)n1-c1ccc(C2CC2)cc1 [1-186]
6 | 100 to 1000 nM | Cc1ccccc1-n1c(C)c2cnn(-c3ccccc3)c(=O)c2c1C [1-7]
7 | 100 to 1000 nM | COc1cccc(-n2c(C)c3cnn(-c4ccc(C(=O)N(C)C)cc4)c(=O)c3c2C)c1 [1-75]
8 | 100 to 1000 nM | Cc1c2cnn(-c3ccc(S(C)(=O)=O)cc3)c(=O)c2c(C)n1-c1ccccc1 [1-30]
9 | < 100 nM | COc1cccc(-n2ncc3c(C)n(-c4ccccc4)c(C)c3c2=O)c1 [1-12]
10 | 1000 to 10000 nM | COc1cc(F)ccc1-n1c(C)c2cnn(-c3ccccn3)c(=O)c2c1C [1-191]
11 | < 100 nM | COc1cccc(-n2c(C)c3cnn(-c4ccnc(OC)c4)c(=O)c3c2C)c1 [1-121]
12 | < 100 nM | Cc1c2cnn(-c3ccc(S(N)(=O)=O)cc3)c(=O)c2c(C)n1-c1ccccc1 [1-28]
13 | 100 to 1000 nM | COc1ccc(-n2c(C)c3cnn(-c4cccnc4)c(=O)c3c2C)cc1 [1-46]
14 | < 100 nM | COc1cccc(-n2c(C)c3cnn(-c4ccc(S(N)(=O)=O)cc4)c(=O)c3c2C)c1 [1-120]
15 | 100 to 1000 nM | COc1cccc(-n2c(C)c3cnn(-c4ncc(C)cn4)c(=O)c3c2C)c1Cl [1-204]
16 | 100 to 1000 nM | COc1cccc(-n2c(C)c3cnn(-c4ncccn4)c(=O)c3c2C)c1Cl [1-203]
17 | < 100 nM | Cc1c2cnn(-c3ccccn3)c(=O)c2c(C)n1-c1cccc(N2CCC2)c1 [1-102, 6-(3-(Azetidin-1-yl)phenyl)-5,7-dimethyl-2-(pyridin-2-yl)-2,6-dihydro-1H-pyrrolo[3,4-d]pyridazin-1-one]
18 | 100 to 1000 nM | CCc1ccc(-n2c(C)c3cnn(-c4ccccn4)c(=O)c3c2C)cc1 [1-86]
19 | 100 to 1000 nM | COc1ccccc1-n1c(C)c2cnn(-c3ccccc3)c(=O)c2c1C [1-18]
20 | 100 to 1000 nM | COc1cccc(-n2c(C)c3cnn(-c4ccc(OC)nc4)c(=O)c3c2C)c1 [1-127]
21 | 1000 to 10000 nM | Cc1c2cnn(-c3ccccn3)c(=O)c2c(C)n1-c1cccc(N2CCCC2=O)c1 [1-111]
22 | < 100 nM | CNC(=O)Cc1ccc(-n2ncc3c(C)n(-c4cccc(N5CCC5)c4)c(C)c3c2=O)cc1 [1-180]
23 | 1000 to 10000 nM | COCCNc1ccc(-n2c(C)c3cnn(-c4ccccc4)c(=O)c3c2C)cc1 [1-42]
24 | < 100 nM | COc1cccc(-n2c(C)c3cnn(-c4ccc(C(C)(C)O)cn4)c(=O)c3c2C)c1 [1-216]
25 | 100 to 1000 nM | Cc1c2cnn(-c3ccccc3)c(=O)c2c(C)n1-c1ccc(N(C)C)cc1 [1-23]
26 | 100 to 1000 nM | Cc1cccc(-n2c(C)c3cnn(-c4ccccn4)c(=O)c3c2C)c1 [1-45]
27 | 1000 to 10000 nM | COCc1cccc(-n2c(C)c3cnn(-c4ccccn4)c(=O)c3c2C)c1 [1-107]
28 | < 100 nM | Cc1c2cnn(-c3ccccn3)c(=O)c2c(C)n1-c1cccc(N2CCCCC2)c1 [1-143]

The next lines start with the compound.

Row | Structure (SMILES) | IC50
29 | COc1cccc(-n2c(C)c3cnn(-c4cccc(C(=O)N(C)C)c4)c(=O)c3c2C)c1 [1-112] | 100 to 1000 nM
30 | COc1ccc(-n2ncc3c(C)n(-c4cccc(OC)c4)c(C)c3c2=O)cc1 [1-97] | < 100 nM
31 | Cc1c2cnn(-c3ccc(C#N)cn3)c(=O)c2c(C)n1-c1cccc(N2CCC2)c1 [1-160] | < 100 nM
32 | COc1cc(-n2c(C)c3cnn(-c4ccccn4)c(=O)c3c2C)ccc1Cl [1-72] | 1000 to 10000 nM
33 | Cc1c2cnn(-c3ccccn3)c(=O)c2c(C)n1-c1cccc(OC(C)C)c1 [1-139] | 100 to 1000 nM
34 | Cc1c2cnn(-c3ncc(F)cn3)c(=O)c2c(C)n1-c1cccc(N2CCC2)c1 [1-226] | < 100 nM
35 | COc1cccc(-n2c(C)c3cnn(-c4ccccc4F)c(=O)c3c2C)c1 [1-149] | < 100 nM
36 | COc1cccc(-n2c(C)c3cnn(-c4cncnc4)c(=O)c3c2C)c1 [1-95] | 100 to 1000 nM
37 | Cc1c2cnn(-c3ncc(F)cn3)c(=O)c2c(C)n1-c1cc(F)cc(N2CCC2)c1 [1-208] | < 100 nM
38 | Cc1c2cnn(-c3cccc(N4CCOCC4)c3)c(=O)c2c(C)n1-c1cccc(N2CCC2)c1 [1-167] | 100 to 1000 nM
39 | COc1cccc(-n2c(C)c3cnn(-c4cccc(OC)c4)c(=O)c3c2C)c1 [1-130] | < 100 nM
40 | Cc1c2cnn(-c3ncc(F)cn3)c(=O)c2c(C)n1-c1cccc2c1ccn2C1CC1 [1-214] | < 100 nM
41 | Cc1c2cnn(-c3ccccn3)c(=O)c2c(C)n1-c1cccc(-c2ccco2)c1 [1-136] | < 100 nM
42 | COc1cccc(-n2c(C)c3cnn(-c4ccc(C(C)(C)C)cn4)c(=O)c3c2C)c1 [1-206] | 100 to 1000 nM
43 | Cc1c2cnn(-c3nccs3)c(=O)c2c(C)n1-c1cccc(N2CCC2)c1 [1-227] | 1000 to 10000 nM
44 | Cc1c2cnn(-c3ccc(F)cn3)c(=O)c2c(C)n1-c1cccc(N2CCC2)c1 [1-173] | < 100 nM
45 | CC(=O)c1ccc(-n2ncc3c(C)n(-c4ccccc4)c(C)c3c2=O)cc1 [1-27] | 100 to 1000 nM
46 | COc1ccnc(-n2ncc3c(C)n(-c4cccc(N5CCC5)c4)c(C)c3c2=O)c1 [1-229] | 100 to 1000 nM
47 | COc1cc(-n2ncc3c(C)n(-c4cccc(N5CCC5)c4)c(C)c3c2=O)ccc1CO [1-166] | < 100 nM
48 | Cc1c2cnn(-c3ccc(S(N)(=O)=O)cc3)c(=O)c2c(C)n1-c1cccc(N2CCOCC2)c1 [1-68] | 100 to 1000 nM

Row | Structure (SMILES) | IC50
49 | COc1cccc(-n2c(C)c3cnn(-c4ccc5ccccc5n4)c(=O)c3c2C)c1 [1-61] | 100 to 1000 nM
50 | Cc1c2cnn(-c3ccncc3)c(=O)c2c(C)n1-c1ccccc1 [1-37] | 100 to 1000 nM
51 | Cc1c2cnn(-c3ccccc3)c(=O)c2c(C)n1-c1ccccn1 [1-25] | 1000 to 10000 nM
52 | Cc1ccc(-n2c(C)c3cnn(-c4cccc(C)c4)c(=O)c3c2C)cc1 [1-99] | 100 to 1000 nM
53 | CCOc1ccc(-n2ncc3c(C)n(-c4ccccc4)c(C)c3c2=O)cc1 [1-60] | 100 to 1000 nM
54 | Cc1cccc(-n2ncc3c(C)n(-c4cccc(N5CCOCC5)c4)c(C)c3c2=O)c1 [1-84] | 1000 to 10000 nM
55 | Cc1ccc(-n2ncc3c(C)n(-c4cccc(N5CCC5)c4)c(C)c3c2=O)cn1 [1-157] | < 100 nM
56 | Cc1c2cnn(-c3cccnc3)c(=O)c2c(C)n1-c1ccccc1 [1-9] | 100 to 1000 nM
57 | Cc1c(OC(F)F)cccc1-n1c(C)c2cnn(-c3ccccn3)c(=O)c2c1C [1-232] | 100 to 1000 nM
58 | Cc1c2cnn(-c3ncccc3F)c(=O)c2c(C)n1-c1cccc(N2CCC2)c1 [1-225] | < 100 nM
59 | Cc1c2cnn(-c3ccccc3)c(=O)c2c(C)n1-c1ccc(Cl)cc1 [1-8] | 100 to 1000 nM
60 | Cc1c2cnn(-c3ncccc3F)c(=O)c2c(C)n1-c1cc(N2CCC2)ccc1F [1-217] | < 100 nM
61 | COc1cccc(-n2c(C)c3cnn(-c4ccc(S(C)(=O)=O)cc4)c(=O)c3c2C)c1 [1-119] | < 100 nM
62 | COc1cccc(-n2c(C)c3cnn(-c4ccc(N5CCOCC5)nc4)c(=O)c3c2C)c1 [1-91] | 100 to 1000 nM
63 | COc1cccc(-n2c(C)c3cnn(-c4cccc(CO)c4)c(=O)c3c2C)c1 [1-114] | 100 to 1000 nM
64 | Cc1ccc(-n2c(C)c3cnn(-c4ccccn4)c(=O)c3c2C)nc1 [1-56] | 1000 to 10000 nM
65 | COc1cc(OC)cc(-n2c(C)c3cnn(-c4ccccn4)c(=O)c3c2C)c1 [1-175] | 100 to 1000 nM
66 | COc1cccc(-n2c(C)c3cnn(-c4cccc(OC)n4)c(=O)c3c2C)c1 [1-74] | 1000 to 10000 nM
67 | Cc1c2cnn(-c3ccccn3)c(=O)c2c(C)n1-c1ccc2ccn(C)c2c1 [1-96, 5,7-Dimethyl-6-(1-methyl-1H-indol-6-yl)-2-(pyridin-2-yl)-2,6-dihydro-1H-pyrrolo[3,4-d]pyridazin-1-one] | 1000 to 10000 nM
68 | COc1cccc(-n2c(C)c3cnn(-c4ccccn4)c(=O)c3c2C)c1Cl [1-197] | 100 to 1000 nM
